Legend:
Conditions in all cases: exposure time: 72 h
E28 [1] = patient-derived glioblastoma stem cells of classical subtype; experiment: phenotypic distance (Euclidean, principal components) from DMSO controls (arbitrary units); higher = stronger morphological change
E34 [2] = patient-derived glioblastoma stem cells of proneural subtype; experiment: as above
E31 [3] = patient-derived glioblastoma stem cells of proneural subtype; experiment: as above
E13 [4] = patient-derived glioblastoma stem cells of classical subtype; experiment: as above
E57 [5] = patient-derived glioblastoma stem cells of mesenchymal subtype; experiment: as above
E21 [6] = patient-derived glioblastoma stem cells of mesenchymal subtype; experiment: as above
FT3469 [7] = normal neural stem cell line; experiment: as above
E28 [8] = experiment: surviving fraction (nuclei count normalised to DMSO); higher = more cells surviving (less toxic)
E34 [9] = experiment: as above
E31 [10] = experiment: as above
E13 [11] = experiment: as above
E57 [12] = experiment: as above
E21 [13] = experiment: as above
FT3469 [14] = experiment: as above
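For phenotypic distance (Euclidean, principal components) from DMSO controls in this document: cell Painting imaging in 384-well plates, CellProfiler features reduced to at least 20 principal components, Euclidean distance versus same-plate DMSO vehicle wells (0.1% v/v), median over six images per well.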
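For surviving fraction (nuclei count normalised to DMSO) in this document: nuclei counted by high-content imaging of Hoechst-stained cells in laminin-coated 384-well plates, relative to 0.1% DMSO vehicle wells, with staurosporine as cell-death control.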

CC(C)C[C@H](NC(=O)CNC(=O)c1cc(Cl)ccc1Cl)B(O)O [Ixazomib]
Conditions | phenotypic distance | surviving fraction
E13 [4], 4.1 nM | 4.64 | –
E13 [4], 12.3 nM | 9.62 | –
E13 [4], 37 nM | 17.4 | –
E13 [4], 111.1 nM | 10.6 | –
E13 [4], 333.3 nM | 11.8 | –
E13 [4], 1000 nM | 8.11 | –
E13 [4], 3000 nM | 11.2 | –
E13 [11], 4.1 nM | – | 0.298
E13 [11], 12.3 nM | – | 0.0451
E13 [11], 37 nM | – | 0.0121
E13 [11], 111.1 nM | – | 0.013
E13 [11], 333.3 nM | – | 0.0174
E13 [11], 1000 nM | – | 0.0252
E13 [11], 3000 nM | – | 0.00174
E21 [6], 4.1 nM | 6.82 | –
E21 [6], 12.3 nM | 7.74 | –
E21 [6], 37 nM | 11.3 | –
E21 [6], 111.1 nM | 9.17 | –
E21 [6], 333.3 nM | 11.6 | –
E21 [6], 1000 nM | 10.7 | –
E21 [6], 3000 nM | 14.7 | –
E21 [13], 4.1 nM | – | 0.275
E21 [13], 12.3 nM | – | 0.0747
E21 [13], 37 nM | – | 0.0159
E21 [13], 111.1 nM | – | 0.0149
E21 [13], 333.3 nM | – | 0.0187
E21 [13], 1000 nM | – | 0.0308
E21 [13], 3000 nM | – | 0.00187
E28 [1], 4.1 nM | 2.24 | –
E28 [1], 12.3 nM | 3.91 | –
E28 [1], 37 nM | 4.89 | –
E28 [1], 111.1 nM | 4.69 | –
E28 [1], 333.3 nM | 6.98 | –
E28 [1], 1000 nM | 6.52 | –
E28 [1], 3000 nM | 5.85 | –
E28 [8], 4.1 nM | – | 0.582
E28 [8], 12.3 nM | – | 0.296
E28 [8], 37 nM | – | 0.14
E28 [8], 111.1 nM | – | 0.149
E28 [8], 333.3 nM | – | 0.0863
E28 [8], 1000 nM | – | 0.102
E28 [8], 3000 nM | – | 0.0701
E31 [3], 4.1 nM | 3.6 | –
E31 [3], 12.3 nM | 5.68 | –
E31 [3], 37 nM | 7.85 | –
E31 [3], 111.1 nM | 7.57 | –
E31 [3], 333.3 nM | 8.35 | –
E31 [3], 1000 nM | 9.03 | –
E31 [3], 3000 nM | 17.2 | –
E31 [10], 4.1 nM | – | 0.365
E31 [10], 12.3 nM | – | 0.223
E31 [10], 37 nM | – | 0.0335
E31 [10], 111.1 nM | – | 0.0134
E31 [10], 333.3 nM | – | 0.0218
E31 [10], 1000 nM | – | 0.0402
E31 [10], 3000 nM | – | 0.00669
E34 [2], 4.1 nM | 2.17 | –
E34 [2], 12.3 nM | 4.29 | –
E34 [2], 37 nM | 6.54 | –
E34 [2], 111.1 nM | 7.64 | –
E34 [2], 333.3 nM | 9.65 | –
E34 [2], 1000 nM | 10.2 | –
E34 [2], 3000 nM | 10.4 | –
E34 [9], 4.1 nM | – | 0.609
E34 [9], 12.3 nM | – | 0.423
E34 [9], 37 nM | – | 0.163
E34 [9], 111.1 nM | – | 0.126
E34 [9], 333.3 nM | – | 0.0695
E34 [9], 1000 nM | – | 0.0659
E34 [9], 3000 nM | – | 0.0494
E57 [5], 4.1 nM | 8.41 | –
E57 [5], 12.3 nM | 11.9 | –
E57 [5], 37 nM | 11 | –
E57 [5], 111.1 nM | 10.2 | –
E57 [5], 333.3 nM | 10.1 | –
E57 [5], 1000 nM | 9.67 | –
E57 [5], 3000 nM | 7.76 | –
E57 [12], 4.1 nM | – | 0.118
E57 [12], 12.3 nM | – | 0.0366
E57 [12], 37 nM | – | 0.00889
E57 [12], 111.1 nM | – | 0.00993
E57 [12], 333.3 nM | – | 0.00889
E57 [12], 1000 nM | – | 0.0105
E57 [12], 3000 nM | – | 0.00366
FT3469 [7], 4.1 nM | 2.53 | –
FT3469 [7], 12.3 nM | 2.8 | –
FT3469 [7], 37 nM | 4.87 | –
FT3469 [7], 111.1 nM | 6.47 | –
FT3469 [7], 333.3 nM | 6.55 | –
FT3469 [7], 1000 nM | 7.04 | –
FT3469 [7], 3000 nM | 7.74 | –
FT3469 [14], 4.1 nM | – | 0.583
FT3469 [14], 12.3 nM | – | 0.704
FT3469 [14], 37 nM | – | 0.371
FT3469 [14], 111.1 nM | – | 0.386
FT3469 [14], 333.3 nM | – | 0.297
FT3469 [14], 1000 nM | – | 0.239
FT3469 [14], 3000 nM | – | 0.103
